What all share (format): cell-based
Test [1] concerns the target T1, hM5 (human Muscarinic receptor subtype 5) (Homo sapiens, UniProt P08912).
T1 construct: expressed in transfected cells; host or cells: CHO cells (Chinese hamster ovary cells, ATCC)
T1 sequence (P08912 1-532): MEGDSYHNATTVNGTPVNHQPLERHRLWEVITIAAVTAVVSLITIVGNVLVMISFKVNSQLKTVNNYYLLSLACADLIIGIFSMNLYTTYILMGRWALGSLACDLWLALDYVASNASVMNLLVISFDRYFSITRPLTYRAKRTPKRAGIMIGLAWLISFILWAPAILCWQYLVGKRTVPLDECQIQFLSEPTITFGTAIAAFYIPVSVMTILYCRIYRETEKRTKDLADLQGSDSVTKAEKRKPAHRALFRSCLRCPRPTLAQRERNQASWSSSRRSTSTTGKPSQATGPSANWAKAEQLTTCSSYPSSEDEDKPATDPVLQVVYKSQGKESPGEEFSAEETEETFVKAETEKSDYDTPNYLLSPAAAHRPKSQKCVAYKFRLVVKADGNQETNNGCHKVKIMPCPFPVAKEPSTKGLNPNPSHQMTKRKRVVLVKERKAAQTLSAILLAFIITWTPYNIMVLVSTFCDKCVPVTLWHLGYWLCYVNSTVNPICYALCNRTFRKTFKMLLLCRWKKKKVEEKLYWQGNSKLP
Briefly: Human M5 calcium mobilization FLIPR assay. As to conditions: CHO cells expressing hM5, intracellular Ca2+ release. The protocol: (§1) The compound activity in the present invention (EC50 or IC50) is measured using a 384 plate-based imaging assay that monitors drug induced intracellular Ca^2+ release in whole cells. Activation of hM1 (human Muscarinic receptor subtype 1, gene bank access NM_000738), rM1 (rat Muscarinic receptor subtype 1, gene bank access NM_080773), hM3 (human Muscarinic receptor subtype 3, gene bank access NM_000740NM_000740) and hM5 (human Muscarinic receptor subtype 5, gene bank access NM_0121258), receptors expressed in CHO cells (Chinese hamster ovary cells, ATCC) is quantified in a Molecular Devices FLIPR II™ instrument as an increase in fluorescent signal. Inhibition of hM3 and hM5 by compounds is determined by the decrease in fluorescent signal in response to 2 nM acetylcholine activation.
(§2) Prior to experiment, the cell culture medium is removed from the plates by inversion. […] Plates are incubated at 37° C. for 60 minutes prior to start the experiment. The incubation is terminated by washing the cells four times in assay buffer, leaving a residual 25 μl buffer per well. Cell plates are then transferred to the FLIPR, ready for compound additions.
(§3) The day of experiment, acetylcholine and compounds are diluted in assay buffer in three-fold concentration range (10 points serial dilution) for addition by FLIPR instrument. For all calcium assays, a baseline reading is taken for 10 seconds followed by the addition of 12.5 μl of compounds, resulting in a total well volume of 37.5 μl. Data is collected every second for 60 pictures and then every 6 seconds for 20 pictures prior to the addition of agonist. For hM3 and hM5, before agonist addition, a second baseline reading is taken for 10 seconds followed by the addition of 12.5 μl of agonist or buffer, producing a final volume of 50 μl. After agonist stimulation, the FLIPR continues to collect data every second for 60 pictures and then every 6 seconds for 20 pictures. The fluorescence emission is read using filter 1 (emission 510-570 nm) by the FLIPR on board CCD camera.
(§4) Calcium mobilization output data are calculated as the maximal relative fluorescence unit (RFU) minus the minimal value for both compound and agonist reading frame (except for hM1 and rM1 using only the maximal RFU). Data are analyzed using sigmoidal fits of a non-linear curve-fitting program (XLfit version 4.2.2 Excel add-in version 4.2.2 build 18 math 1Q version 2.1.2 build 18). All pEC50 and pIC50 values are reported as arithmetic means±standard error of mean of ‘n’ independent experiments.
(Calcium assays in cells follow changes in intracellular calcium, usually with a dye or a luminescent sensor.)

The target of test [2] is T2, hM3 (human Muscarinic receptor subtype 3) (Homo sapiens, UniProt P20309).
T2 construct: expressed in transfected cells; host or cells: CHO cells (Chinese hamster ovary cells, ATCC)
Briefly: Human M3 calcium mobilization FLIPR assay. Conditions: CHO cells expressing hM3, intracellular Ca2+ release. The protocol: as §1, §2, §3, §4

Test [3] deals with T3, hM1 (human Muscarinic receptor subtype 1) (Homo sapiens, UniProt P11229).
T3 construct: expressed in transfected cells; host or cells: CHO cells (Chinese hamster ovary cells, ATCC)
T3 sequence (P11229 1-460): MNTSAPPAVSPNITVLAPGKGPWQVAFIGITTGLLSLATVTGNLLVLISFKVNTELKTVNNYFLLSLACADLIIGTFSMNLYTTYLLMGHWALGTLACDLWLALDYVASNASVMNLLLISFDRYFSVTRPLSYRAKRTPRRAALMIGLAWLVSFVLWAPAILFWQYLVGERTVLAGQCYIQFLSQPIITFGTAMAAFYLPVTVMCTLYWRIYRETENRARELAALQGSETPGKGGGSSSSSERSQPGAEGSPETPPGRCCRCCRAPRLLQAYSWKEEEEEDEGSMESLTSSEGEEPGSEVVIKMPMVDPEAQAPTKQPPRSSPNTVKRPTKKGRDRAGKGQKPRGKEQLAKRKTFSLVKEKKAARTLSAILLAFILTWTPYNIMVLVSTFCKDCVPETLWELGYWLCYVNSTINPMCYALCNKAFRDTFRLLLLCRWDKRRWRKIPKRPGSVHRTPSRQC
Description: Human M1 calcium mobilization FLIPR assay. Conditions: CHO cells expressing hM1, intracellular Ca2+ release. Here is the method:
as §1, §2, §3, §4

The structures appear in SMILES notation.

T2 sequence (P20309 whole entry): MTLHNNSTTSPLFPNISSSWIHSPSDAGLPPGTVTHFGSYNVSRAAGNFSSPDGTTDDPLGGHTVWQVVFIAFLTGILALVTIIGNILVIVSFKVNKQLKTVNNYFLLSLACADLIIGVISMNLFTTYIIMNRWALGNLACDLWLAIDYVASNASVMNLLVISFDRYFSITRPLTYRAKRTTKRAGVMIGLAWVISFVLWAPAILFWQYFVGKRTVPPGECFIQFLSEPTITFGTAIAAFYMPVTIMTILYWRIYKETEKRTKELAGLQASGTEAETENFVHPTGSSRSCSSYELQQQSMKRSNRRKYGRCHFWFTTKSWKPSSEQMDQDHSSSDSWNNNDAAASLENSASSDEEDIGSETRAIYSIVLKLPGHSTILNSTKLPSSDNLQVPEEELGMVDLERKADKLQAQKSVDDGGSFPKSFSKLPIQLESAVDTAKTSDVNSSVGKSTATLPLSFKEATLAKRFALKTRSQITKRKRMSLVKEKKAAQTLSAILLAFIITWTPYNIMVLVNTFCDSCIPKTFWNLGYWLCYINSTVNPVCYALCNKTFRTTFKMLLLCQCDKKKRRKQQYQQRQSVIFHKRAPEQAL

The term EC50 denotes the concentration that produces a half-maximal response. Regarding `CCOC(=O)N1CCC(C)(N2CCC(N3C(=O)N[C@H]4CCCC[C@@H]43)CC2)C1` (mixture of isomers) [Example 07, Ethyl 3-[4-[(3aS,7aS)-2-oxo-3a,4,5,6,7,7a-hexahydro-3H-benzoimidazol-1-yl]-1-piperidyl]-3-methyl-pyrrolidine-1-carboxylate], the EC50 in test [1] is 1.1 µM; in test [2], over 40 µM; in test [3], 0.014 µM.

On to `CC1(N2CCC(N3C(=O)N[C@H]4CCCC[C@@H]43)CC2)CCN(C(=O)OCCF)C1` (mixture of isomers) [Example 08, 2-fluoroethyl 3-[4-[(3aS,7aS)-2-oxo-3a,4,5,6,7,7a-hexahydro-3H-benzoimidazol-1-yl]-1-piperidyl]-3-methyl-pyrrolidine-1-carboxylate], for which the EC50 in test [3] stood at 0.069 µM.

`C#CCOC(=O)N1CCC(C)(N2CCC(N3C(=O)N[C@H]4CCCC[C@@H]43)CC2)C1` (mixture of isomers) [Example 09, Prop-2-ynyl 3-[4-[(3aS,7aS)-2-oxo-3a,4,5,6,7,7a-hexahydro-3H-benzoimidazol-1-yl]-1-piperidyl]-3-methyl-pyrrolidine-1-carboxylate]: the EC50 in test [1] was 0.313 µM; in test [2], over 40 µM; in test [3], under 0.0036 µM.

Turning to `COC(=O)N1CCC(C)(N2CCC(N3C(=O)N[C@H]4CCCC[C@@H]43)CC2)C1` (mixture of isomers) [Example 10, Methyl 3-[4-[(3aS,7aS)-2-oxo-3a,4,5,6,7,7a-hexahydro-3H-benzoimidazol-1-yl]-1-piperidyl]-3-methyl-pyrrolidine-1-carboxylate], the half-maximal effective concentration (EC50) in test [3] is 0.069 µM.

`CCOC(=O)N1CCC(C)(N2CCC(N3C(=O)N[C@@H]4CCCC[C@H]43)CC2)C1` (mixture of isomers) [Example 11, Ethyl 3-[4-[(3aR,7aR)-2-oxo-3a,4,5,6,7,7a-hexahydro-3H-benzoimidazol-1-yl]-1-piperidyl]-3-methyl-pyrrolidine-1-carboxylate]: the half-maximal effective concentration (EC50) in test [3] worked out at 0.055 µM.

`CCOC(=O)N1CCC(C)(N2CCC(N3C(=O)N[C@@H]4CCCC[C@@H]43)CC2)CC1` (relative stereo) [Example 12, Ethyl 4-[4-[(cis)-2-oxo-3a,4,5,6,7,7a-hexahydro-3H-benzoimidazol-1-yl]-1-piperidyl]-4-methyl-piperidine-1-carboxylate]: the half-maximal effective concentration (EC50) was 0.919 µM in test [1], over 40 µM in test [2] and 0.011 µM in test [3].

`CC(C)OC(=O)N1CCC(C)(N2CCC(N3C(=O)N[C@@H]4CCCC[C@@H]43)CC2)CC1` (relative stereo) [Example 13, Propan-2-yl 4-[4-[(cis)-2-oxo-3a,4,5,6,7,7a-hexahydro-3H-benzoimidazol-1-yl]-1-piperidyl]-4-methyl-piperidine-1-carboxylate]: the concentration giving a half-maximal response (EC50) in test [1] was over 40 µM; in test [2], over 40 µM; in test [3] it was 0.054 µM.

`CC#CCOC(=O)N1CCC(C)(N2CCC(N3C(=O)N[C@H]4CCCC[C@@H]43)CC2)C1` (single isomer, unassigned) [Example 19]: the EC50 in test [3] came out at 0.0049 µM.

In the case of `CCOC(=O)N1CCC(C)(N2CCC(N3C(=O)N[C@H]4CCCC[C@@H]43)CC2)C1` (single isomer, unassigned) [Example 21], the half-maximal effective concentration (EC50) in test [1] was over 8.41 µM; in test [2], over 22.1 µM; in test [3], 0.0184 µM.

For the compound `CCOC(=O)N1CCC(C)(N2CCC(N3C(=O)N[C@H]4CCCC[C@@H]43)CC2)C1` (single isomer, unassigned) [Example 22], the EC50 in test [1] is 0.412 µM; in test [2] it was over 25.6 µM; in test [3] it was 0.003 µM.

Turning to `CCOC(=O)N1CCC(C)(N2CCC(N3C(=O)C[C@@H]4CCCC[C@H]43)CC2)C1` (stereo in doubt) [Example 23, Ethyl 3-[4-[(3aS,7aR)-2-oxo-3a,4,5,6,7,7a-hexahydro-3H-indol-1-yl]-1-piperidyl]-3-methyl-pyrrolidine-1-carboxylate], the EC50 is over 120 µM in test [1], over 120 µM in test [2] and 0.022 µM in test [3].

Consider `CCOC(=O)N1CCC(C)(N2CCC(N3C(=O)N[C@H]4CCCC[C@@H]43)CC2)CC1` [Example 01, Ethyl 4-[4-[(3aS,7aS)-2-oxo-3a,4,5,6,7,7a-hexahydro-3H-benzoimidazol-1-yl]-1-piperidyl]-4-methyl-piperidine-1-carboxylate], for which the values for the EC50 in test [1], in test [2] and in test [3] were 0.0499 µM, 1.4 µM and 0.0019 µM, respectively.

As to `CC1(N2CCC(N3C(=O)N[C@H]4CCCC[C@@H]43)CC2)CCN(C(=O)C2CC2)CC1` [Example 03, (3aS,7aS)-1-[1-[1-(cyclopropanecarbonyl)-4-methyl-4-piperidyl]-4-piperidyl]-3a,4,5,6,7,7a-hexahydro-3H-benzoimidazol-2-one], the figures for the EC50 in test [1], in test [2] and in test [3] were over 40 µM, over 40 µM and under 0.0071 µM, respectively.

With `CCOC(=O)N1CCC(C)(N2CCC(N3C(=O)N[C@@H]4CCCC[C@H]43)CC2)CC1` [Example 04, Ethyl 4-[4-[(3aR,7aR)-2-oxo-3a,4,5,6,7,7a-hexahydro-3H-benzoimidazol-1-yl]-1-piperidyl]-4-methyl-piperidine-1-carboxylate], the figures for the concentration for a half-maximal effect (EC50) in test [1], in test [2] and in test [3] were 0.586 µM, over 4.2 µM and 0.0033 µM, respectively.

Regarding `CC(C)OC(=O)N1CCC(C)(N2CCC(N3C(=O)N[C@@H]4CCCC[C@H]43)CC2)CC1` [Example 05, Propan-2-yl 4-[4-[(3aR,7aR)-2-oxo-3a,4,5,6,7,7a-hexahydro-3H-benzoimidazol-1-yl]-1-piperidyl]-4-methyl-piperidine-1-carboxylate], the half-maximal effective concentration (EC50) in test [1] is over 49.2 µM; in test [2], over 49 µM; in test [3] it was 0.025 µM.

In the case of `CC1(N2CCC(N3C(=O)N[C@@H]4CCCC[C@H]43)CC2)CCN(C(=O)C2CC2)CC1` [Example 06, (3aR,7aR)-1-[1-[1-(cyclopropanecarbonyl)-4-methyl-4-piperidyl]-4-piperidyl]-3a,4,5,6,7,7a-hexahydro-3H-benzoimidazol-2-one], the EC50 is over 49.2 µM in test [1], over 49 µM in test [2] and 0.051 µM in test [3].

For the compound `CC(C)OC(=O)N1CCC(C)(N2CCC(N3C(=O)C[C@H]4CCCC[C@@H]43)CC2)CC1` [Example 14, Propan-2-yl 4-[4-[(3aR,7aS)-2-oxo-3a,4,5,6,7,7a-hexahydro-3H-indol-1-yl]-1-piperidyl]-4-methyl-piperidine-1-carboxylate], the concentration for a half-maximal effect (EC50) in test [1] was over 40 µM; in test [2] it was over 40 µM; in test [3], 0.019 µM.

As to `C#CCOC(=O)N1CCC(C)(N2CCC(N3C(=O)N[C@H]4CCCC[C@@H]43)CC2)CC1` [Example 17, prop-2-ynyl 4-[4-[(3aS,7aS)-2-oxo-3a,4,5,6,7,7a-hexahydro-3H-benzimidazol-1-yl]-1-piperidyl]-4-methyl-piperidine-1-carboxylate], the EC50 in test [3] stood at 0.0015 µM.

(Values after patent US8119661B2, “Piperidine derivatives and their use as muscarinic receptor modulators” (AstraZeneca AB, priority 2007, dated 2012).)
